Tests used:
[1] = target: T1, Lysine-specific demethylase 4A (Homo sapiens, UniProt O75164); assay: Inhibition of H3(1-10)K4me3 peptide binding to thrombin cleavable N-terminal 6His tagged and 13C-IVLM labeled human KDM4A tandem TUDOR domain (897 to 1011 residues) expressed in Escherichia coli BL21(DE3)-T1R by ITC method
T1 sequence (O75164 whole entry): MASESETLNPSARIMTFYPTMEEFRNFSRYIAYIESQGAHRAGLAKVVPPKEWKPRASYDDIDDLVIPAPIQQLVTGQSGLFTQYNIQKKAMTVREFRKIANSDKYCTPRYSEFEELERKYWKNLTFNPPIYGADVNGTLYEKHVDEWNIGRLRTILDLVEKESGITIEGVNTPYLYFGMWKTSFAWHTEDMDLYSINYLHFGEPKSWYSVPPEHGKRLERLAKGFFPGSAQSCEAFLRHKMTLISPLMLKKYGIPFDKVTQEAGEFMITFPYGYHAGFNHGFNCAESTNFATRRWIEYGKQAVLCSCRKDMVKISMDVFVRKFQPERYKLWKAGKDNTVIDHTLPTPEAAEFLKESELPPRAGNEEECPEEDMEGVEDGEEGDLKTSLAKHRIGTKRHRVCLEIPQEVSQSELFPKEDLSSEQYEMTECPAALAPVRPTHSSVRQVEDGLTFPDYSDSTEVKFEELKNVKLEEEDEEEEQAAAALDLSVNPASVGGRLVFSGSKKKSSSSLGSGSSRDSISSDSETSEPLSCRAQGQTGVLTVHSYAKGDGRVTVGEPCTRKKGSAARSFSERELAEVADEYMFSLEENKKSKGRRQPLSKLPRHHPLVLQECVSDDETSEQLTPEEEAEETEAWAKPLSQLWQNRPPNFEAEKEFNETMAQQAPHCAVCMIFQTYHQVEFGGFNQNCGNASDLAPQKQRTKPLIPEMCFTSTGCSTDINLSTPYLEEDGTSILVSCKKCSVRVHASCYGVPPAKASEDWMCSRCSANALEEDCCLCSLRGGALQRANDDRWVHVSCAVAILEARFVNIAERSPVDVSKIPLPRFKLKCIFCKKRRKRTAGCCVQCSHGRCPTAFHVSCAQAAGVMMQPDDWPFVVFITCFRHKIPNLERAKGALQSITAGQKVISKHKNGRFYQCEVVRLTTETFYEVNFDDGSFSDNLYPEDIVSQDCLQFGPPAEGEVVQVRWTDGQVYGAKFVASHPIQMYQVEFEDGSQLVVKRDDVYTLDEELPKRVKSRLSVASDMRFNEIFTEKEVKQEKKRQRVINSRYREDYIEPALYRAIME

[2] = target: T2, Lysine-specific demethylase 4C (Homo sapiens, UniProt Q9H3R0); assay: Binding affinity to 6His-tagged and human KDM4C tandem TUDOR domain (874 to 990 residues) expressed in Escherichia coli BL21(DE3)-T1R by ITC method
T2 sequence (Q9H3R0 whole entry): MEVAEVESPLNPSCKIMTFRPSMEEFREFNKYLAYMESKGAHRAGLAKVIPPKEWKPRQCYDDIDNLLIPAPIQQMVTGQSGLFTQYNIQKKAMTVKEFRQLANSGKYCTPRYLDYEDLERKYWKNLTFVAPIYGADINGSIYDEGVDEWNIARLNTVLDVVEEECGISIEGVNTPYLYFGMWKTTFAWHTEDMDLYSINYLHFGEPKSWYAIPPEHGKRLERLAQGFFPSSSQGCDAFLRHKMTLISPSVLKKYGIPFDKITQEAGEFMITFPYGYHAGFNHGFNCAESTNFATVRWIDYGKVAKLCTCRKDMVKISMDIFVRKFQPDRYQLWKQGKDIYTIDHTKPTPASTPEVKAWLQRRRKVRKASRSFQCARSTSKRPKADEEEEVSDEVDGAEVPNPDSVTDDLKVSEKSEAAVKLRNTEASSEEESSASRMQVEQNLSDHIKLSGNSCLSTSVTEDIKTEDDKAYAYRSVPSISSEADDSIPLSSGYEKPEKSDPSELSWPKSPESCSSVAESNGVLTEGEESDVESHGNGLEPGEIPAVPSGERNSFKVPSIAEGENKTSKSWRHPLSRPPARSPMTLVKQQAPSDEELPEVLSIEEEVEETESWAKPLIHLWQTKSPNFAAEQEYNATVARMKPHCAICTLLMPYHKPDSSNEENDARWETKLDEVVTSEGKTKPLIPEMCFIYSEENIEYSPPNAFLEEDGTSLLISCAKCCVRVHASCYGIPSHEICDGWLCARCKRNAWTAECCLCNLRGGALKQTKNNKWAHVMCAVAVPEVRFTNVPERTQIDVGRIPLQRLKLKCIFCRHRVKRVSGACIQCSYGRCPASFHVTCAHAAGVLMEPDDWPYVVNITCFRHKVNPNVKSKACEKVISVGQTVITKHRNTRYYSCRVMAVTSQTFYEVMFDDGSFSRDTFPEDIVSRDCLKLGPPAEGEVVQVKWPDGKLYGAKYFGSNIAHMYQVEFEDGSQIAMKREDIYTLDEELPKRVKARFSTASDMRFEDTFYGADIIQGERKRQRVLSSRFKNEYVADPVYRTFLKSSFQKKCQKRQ

## CN(C)C[C@H]1C2CCC(c3ccccc3)(C2)[C@H]1O (some centres not stated)
[1]
  Ki: 170 µM
[2]
  Kd: 129 µM

— ChEMBL document CHEMBL4190382, “Targeting lysine specific demethylase 4A (KDM4A) tandem TUDOR domain - A fragment based approach” (Bioorg Med Chem Lett, 2018)
